Columns and labels:
Experiment in all cases: co-expression in E. coli, purification, chromophore extraction and absorbance
Type in all cases: binding
Conditions in all cases: all-trans-retinal-bound protein; 0.02% DDM, 150 mM NaCl, 50 mM Tris, pH 7.0
[1] = target: T1, Gloeobacter rhodopsin (GR) (Gloeobacter violaceus, UniProt Q7NP59)
T1 construct: gene gll0198
T1 sequence (Q7NP59 1-298): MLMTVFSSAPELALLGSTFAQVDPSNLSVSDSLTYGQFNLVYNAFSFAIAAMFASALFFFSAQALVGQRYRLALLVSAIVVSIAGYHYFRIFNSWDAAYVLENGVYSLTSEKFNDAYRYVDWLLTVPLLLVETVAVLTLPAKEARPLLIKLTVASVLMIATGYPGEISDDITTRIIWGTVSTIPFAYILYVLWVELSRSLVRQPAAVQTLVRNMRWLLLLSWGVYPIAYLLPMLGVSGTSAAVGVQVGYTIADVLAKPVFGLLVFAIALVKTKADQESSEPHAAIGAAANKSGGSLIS

[2] = target: T2, Gloeobacter rhodopsin (GR) (Gloeobacter violaceus, UniProt Q7NP59, S221G)
T2 construct: gene gll0198
T2 sequence (Q7NP59 entry or part of it S221G): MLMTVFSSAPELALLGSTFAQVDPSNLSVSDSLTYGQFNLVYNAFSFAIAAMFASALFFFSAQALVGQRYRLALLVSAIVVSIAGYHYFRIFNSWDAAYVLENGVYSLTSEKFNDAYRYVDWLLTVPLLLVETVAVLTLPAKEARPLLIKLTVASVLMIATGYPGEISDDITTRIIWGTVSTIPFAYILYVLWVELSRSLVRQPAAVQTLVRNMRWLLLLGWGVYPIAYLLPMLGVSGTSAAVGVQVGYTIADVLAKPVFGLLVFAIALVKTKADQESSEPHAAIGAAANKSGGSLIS

[3] = target: T3, Gloeobacter rhodopsin (GR) (Gloeobacter violaceus, UniProt Q7NP59, P226G)
T3 construct: gene gll0198
T3 sequence (Q7NP59 entry or part of it P226G): as the sequence (Q7NP59 entry or part of it S221G) above, with G221S, P226G counted along it

[4] = target: T4, Gloeobacter rhodopsin (GR) (Gloeobacter violaceus, UniProt Q7NP59, T179G/T182G/F185G)
T4 construct: gene gll0198
T4 sequence (Q7NP59 entry or part of it T179G/T182G/F185G): as the sequence (Q7NP59 entry or part of it S221G) above, with T179G, T182G, F185G, G221S counted along it

[5] = target: T5, Gloeobacter rhodopsin (GR) (Gloeobacter violaceus, UniProt Q7NP59, T179G)
T5 construct: gene gll0198
T5 sequence (Q7NP59 entry or part of it T179G): as the sequence (Q7NP59 entry or part of it S221G) above, with T179G, G221S counted along it

[6] = target: T6, Gloeobacter rhodopsin (GR) (Gloeobacter violaceus, UniProt Q7NP59, S181G)
T6 construct: gene gll0198
T6 sequence (Q7NP59 entry or part of it S181G): as the sequence (Q7NP59 entry or part of it S221G) above, with S181G, G221S counted along it

[7] = target: T7, Gloeobacter rhodopsin (GR) (Gloeobacter violaceus, UniProt Q7NP59, G178W)
T7 construct: gene gll0198
T7 sequence (Q7NP59 entry or part of it G178W): as the sequence (Q7NP59 entry or part of it S221G) above, with G178W, G221S counted along it

[8] = target: T8, Gloeobacter rhodopsin (GR) (Gloeobacter violaceus, UniProt Q7NP59, P226G/I227G)
T8 construct: gene gll0198
T8 sequence (Q7NP59 entry or part of it P226G/I227G): as the sequence (Q7NP59 entry or part of it S221G) above, with G221S, P226G, I227G counted along it

[9] = target: T9, Gloeobacter rhodopsin (GR) (Gloeobacter violaceus, UniProt Q7NP59, T179G/T182G)
T9 construct: gene gll0198
T9 sequence (Q7NP59 entry or part of it T179G/T182G): as the sequence (Q7NP59 entry or part of it S221G) above, with T179G, T182G, G221S counted along it

[10] = target: T10, Gloeobacter rhodopsin (GR) (Gloeobacter violaceus, UniProt Q7NP59, I227G)
T10 construct: gene gll0198
T10 sequence (Q7NP59 entry or part of it I227G): as the sequence (Q7NP59 entry or part of it S221G) above, with G221S, I227G counted along it

[11] = target: T11, Gloeobacter rhodopsin (GR) (Gloeobacter violaceus, UniProt Q7NP59, F185G)
T11 construct: gene gll0198
T11 sequence (Q7NP59 entry or part of it F185G): as the sequence (Q7NP59 entry or part of it S221G) above, with F185G, G221S counted along it

CC1=C(/C=C/C(C)=C/C=C/C(C)=C/C=C/C=C(C)/C=C/C=C(C)/C=C/C2=C(C)C(=O)CCC2(C)C)C(C)(C)CCC1=O [canthaxanthin]
carotenoid/retinal binding ratio [1]: ~ 87%
carotenoid/retinal binding ratio [2]: ~ 69%
carotenoid/retinal binding ratio [3]: ~ 48%
carotenoid/retinal binding ratio [4]: ~ 5%
carotenoid/retinal binding ratio [5]: ~ 41%
carotenoid/retinal binding ratio [6]: All mutants critical affect the carotenoid binding but not S181G
carotenoid binding [7]: with retinal and carotenoid showed no carotenoid binding in the absorption spectrum
carotenoid/retinal binding ratio [8]: ~ 29%
carotenoid/retinal binding ratio [9]: ~ 19%
carotenoid/retinal binding ratio [10]: ~ 42%
carotenoid/retinal binding ratio [11]: ~ 37%
